This passage reports T/C results from PubChem BioAssay AID256 (DTP/NCI, 2004).

In the assay the test system is CD2F1 mice, L1210 leukemia ip, survival T/C. As to the kind of experiment: NCI In Vivo Anticancer Drug Screen. Data for tumor model L1210 Leukemia (intraperitoneal) in CD2F1 (CDF1) mice. Conditions: endpoint: mean survival time, higher = longer survival. The method, boiled down:
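Transplantable tumor in mice; compound-treated vs vehicle-treated groups. Read-out = treated/control ratio of the measured endpoint.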

The mark [1] stands for this setting: dose: 12.5 mg/kg/injection, schedule: Q04DX003 (ip), vehicle: saline.
Where [2] appears, read: dose: 25.0 mg/kg/injection, schedule: Q04DX003 (ip), vehicle: saline.
[3] abbreviates: dose: 50.0 mg/kg/injection, schedule: Q04DX003 (ip), vehicle: saline.
[4] abbreviates: dose: 100.0 mg/kg/injection, schedule: Q01DX001 (ip), vehicle: saline with Tween-80.
The mark [5] stands for this setting: dose: 25.0 mg/kg/injection, schedule: Q04DX003 (ip), vehicle: saline with Tween-80.
Setting [6] is: dose: 50.0 mg/kg/injection, schedule: Q01DX001 (ip), vehicle: saline with Tween-80.
[7] abbreviates: dose: 50.0 mg/kg/injection, schedule: Q01DX009 (ip), vehicle: saline with Tween-80.
Setting [8] is: dose: 50.0 mg/kg/injection, schedule: Q04DX003 (ip), vehicle: saline with Tween-80.
Setting [9] is: dose: 100.0 mg/kg/injection, schedule: Q01DX009 (ip), vehicle: saline with Tween-80.
Where [10] appears, read: dose: 100.0 mg/kg/injection, schedule: Q04DX003 (ip), vehicle: saline with Tween-80.
Setting [11] is: dose: 200.0 mg/kg/injection, schedule: Q04DX003 (ip), vehicle: saline with Tween-80.
[12] abbreviates: dose: 200.0 mg/kg/injection, schedule: Q01DX001 (ip), vehicle: saline with Tween-80.
Setting [13] is: dose: 12.5 mg/kg/injection, schedule: Q04DX003 (ip), vehicle: saline with Tween-80.

“And” between values parts separate entries of the source, which are not always exact repeats. Equal entries are not always repeated. Inconclusive results and toxic doses are left out.

For `O=C(O)c1ccccc1N(CCO)CCCl`, the T/C (dose: 3.13 mg/kg/injection, schedule: Q01DX009 (ip), vehicle: saline with Tween-80) is 121 % of control and 110 % of control; the T/C (dose: 6.25 mg/kg/injection, schedule: Q01DX009 (ip), vehicle: saline with Tween-80) was 119 % of control; the T/C (dose: 10.0 mg/kg/injection, schedule: Q01DX009 (ip), vehicle: Klucel (hydroxypropylcellulose) (HPC)) is 186 % of control.
With `CCN(CC)C(C)COC(=O)c1ccc(N)cc1` (stereo unspecified), the T/C was 103 % of control under setting [1], 103 % of control under setting [2] and 111 % of control under setting [3].
With `OC(CCC(O)c1ccccc1)c1ccccc1` (stereo unspecified), the T/C is, setting by setting: (dose: 75.0 mg/kg/injection, schedule: Q01DX001 (ip), vehicle: saline sonified) 98 % of control; (dose: 150.0 mg/kg/injection, schedule: Q01DX001 (ip), vehicle: saline sonified) 96 % of control; (dose: 300.0 mg/kg/injection, schedule: Q01DX001 (ip), vehicle: saline sonified) 94 % of control.
For the compound `N/N=C\C(=N/N)C(O)C(O)C(O)CO` (stereo unspecified), the T/C under setting [4] is 87 % of control.
Regarding `CCOC(=O)c1ccc(NC(=O)Oc2cc3ccccc3cc2C(=O)Nc2ccccc2)cc1`, the T/C by setting is: (dose: 25.0 mg/kg/injection, schedule: Q01DX001 (ip), vehicle: saline with Tween-80) 87 % of control; (dose: 25.0 mg/kg/injection, schedule: Q01DX009 (ip), vehicle: saline with Tween-80) 94 % of control and 96 % of control; (dose: 25.0 mg/kg/injection, schedule: Q04DX002 (ip), vehicle: saline with Tween-80) 97 % of control; under setting [5], 96 % of control and 98 % of control; under setting [6], 87 % of control; under setting [7], 88 % of control and 92 % of control. In addition, the T/C (dose: 50.0 mg/kg/injection, schedule: Q04DX002 (ip), vehicle: saline with Tween-80) was 88 % of control and 92 % of control; the T/C under setting [8] is 88 % of control and 92 % of control; the T/C under setting [4] was 87 % of control; the T/C under setting [9] is 91 % of control and 96 % of control; the T/C under setting [10] was 92 % of control; the T/C (dose: 200.0 mg/kg/injection, schedule: Q04DX002 (ip), vehicle: saline with Tween-80) is 87 % of control. The T/C under setting [11] is 92 % of control and 93 % of control.
Turning to `O=C1C2CCCCC2C(=O)N1c1cccc2cccnc12` (stereo unspecified), the T/C under setting [6] was 98 % of control, the T/C under setting [4] was 95 % of control and the T/C under setting [12] is 95 % of control.
Regarding `CC(=O)C1C(c2ccccc2)=C(c2ccccc2)c2ccccc21` (stereo unspecified), the T/C by setting is: under setting [4], 88 % of control; under setting [12], 92 % of control; (dose: 400.0 mg/kg/injection, schedule: Q01DX001 (ip), vehicle: saline with Tween-80) 92 % of control.
With `O=c1[nH]c2c(c(=O)n1-c1ccccc1)CCCS2`, the T/C was 103 % of control (dose: 100.0 mg/kg/injection, schedule: Q01DX001 (ip), vehicle: saline); 104 % of control (dose: 200.0 mg/kg/injection, schedule: Q01DX001 (ip), vehicle: saline); 103 % of control (dose: 400.0 mg/kg/injection, schedule: Q01DX001 (ip), vehicle: saline).
Regarding `CCCC1CC[N-]CC1.CCCC1CC[N-]CC1.[Cl][Pt+2]([Cl])([Cl])[Cl]`, the T/C by setting is: (dose: 12.5 mg/kg/injection, schedule: Q01DX009 (ip), vehicle: saline sonified) 114 % of control; under setting [5], 98 % of control.
In the case of `O=c1[nH]nc([O-])c2c1[n+](Cc1ccccc1)cn2Cc1ccccc1`, the T/C was 94 % of control (dose: 9.4 mg/kg/injection, schedule: Q01DX005 (ip), vehicle: water); 98 % of control (dose: 18.8 mg/kg/injection, schedule: Q01DX005 (ip), vehicle: water); 91 % of control (dose: 37.5 mg/kg/injection, schedule: Q01DX005 (ip), vehicle: water); 88 % of control (dose: 75.0 mg/kg/injection, schedule: Q01DX005 (ip), vehicle: water).
Regarding `CCOC(=O)NC(C)(C)CN(C(=O)OCC)c1ccccc1`, the T/C was 98 % of control under setting [9]; 124 % of control (dose: 200.0 mg/kg/injection, schedule: Q01DX009 (ip), vehicle: saline with Tween-80); 95 % of control (dose: 400.0 mg/kg/injection, schedule: Q01DX009 (ip), vehicle: saline with Tween-80).
`O=[N+]([O-])O.O=[N+]([O-])O.[NH-]C(c1ccccc1)C([NH-])c1ccccc1.[Pt+2]` (stereo unspecified): the T/C is 168 % of control (dose: 6.25 mg/kg/injection, schedule: Q04DX003 (ip), vehicle: saline); 158 % of control under setting [13]; 189 % of control under setting [1]; 168 % of control under setting [5]; 195 % of control under setting [2].
Regarding `CNC(=O)Oc1c(Cl)c(C(Cl)(Cl)Cl)nc2ccccc12`, the T/C by setting is: under setting [5], 96 % of control; under setting [8], 97 % of control; under setting [10], 89 % of control.
On to `C=C1CC(O)C2C(=C)C(=O)OC2C2C(C)C(=O)CC12` (stereo unspecified), for which the T/C was 95 % of control (dose: 6.25 mg/kg/injection, schedule: Q01DX009 (ip), vehicle: Klucel (hydroxypropylcellulose) (HPC)); 100 % of control (dose: 12.5 mg/kg/injection, schedule: Q01DX009 (ip), vehicle: Klucel (hydroxypropylcellulose) (HPC)); 105 % of control (dose: 25.0 mg/kg/injection, schedule: Q01DX009 (ip), vehicle: Klucel (hydroxypropylcellulose) (HPC)).
Turning to `S=C(Nc1ccc(Cl)c(Cl)c1)SCc1ccc2c(c1)OCO2`, the T/C by setting is: (dose: 18.7 mg/kg/injection, schedule: Q01DX009 (ip), vehicle: suspension in saline) 107 % of control; (dose: 37.5 mg/kg/injection, schedule: Q01DX009 (ip), vehicle: suspension in saline) 108 % of control; (dose: 75.0 mg/kg/injection, schedule: Q01DX009 (ip), vehicle: suspension in saline) 107 % of control; (dose: 150.0 mg/kg/injection, schedule: Q01DX009 (ip), vehicle: suspension in saline) 111 % of control.
`C/C(=C/C#N)c1ccccc1`: the T/C by setting is: under setting [7], 101 % of control; under setting [9], 97 % of control; under setting [10], 100 % of control; under setting [11], 100 % of control.
Turning to `CCCCCCCCCCCCCCCC(=O)N(CCCN(C)C)C1CCC(N(CCCN(C)C)C(=O)CCCCCCCCCCCCCCC)CC1` (stereo unspecified), the T/C was 101 % of control (dose: 12.5 mg/kg/injection, schedule: Q01DX009 (ip), vehicle: saline with Tween-80); 93 % of control under setting [13]; 111 % of control under setting [5]; 102 % of control under setting [8].
Consider `N#CSC/C(=N\Nc1ccc([N+](=O)[O-])cc1[N+](=O)[O-])c1ccccc1`, for which the T/C was 103 % of control (dose: 100.0 mg/kg/injection, schedule: Q04DX003 (ip), vehicle: saline sonified); 102 % of control (dose: 200.0 mg/kg/injection, schedule: Q04DX003 (ip), vehicle: saline sonified); 103 % of control (dose: 400.0 mg/kg/injection, schedule: Q04DX003 (ip), vehicle: saline sonified).
In the case of `Oc1ccc(I)cc1`, the T/C runs as follows: (dose: 100.0 mg/kg/injection, schedule: Q01DX009 (ip), vehicle: other) 96 % of control; (dose: 200.0 mg/kg/injection, schedule: Q01DX009 (ip), vehicle: other) 103 % of control; (dose: 400.0 mg/kg/injection, schedule: Q01DX009 (ip), vehicle: other) 111 % of control.
On to `CCOC(=O)C=C1CCN(C)CC1`, for which the T/C under setting [3] was 94 % of control; the T/C (dose: 100.0 mg/kg/injection, schedule: Q04DX003 (ip), vehicle: saline) is 97 % of control; the T/C (dose: 200.0 mg/kg/injection, schedule: Q04DX003 (ip), vehicle: saline) is 97 % of control.
For `CCCCCCCC(=O)/C=C/Sc1n[nH]c(=O)[nH]c1=O`, the T/C reads like this: (dose: 12.5 mg/kg/injection, schedule: Q01DX005 (ip), vehicle: distilled water + Tween-80) 94 % of control; (dose: 25.0 mg/kg/injection, schedule: Q01DX005 (ip), vehicle: distilled water + Tween-80) 102 % of control; (dose: 50.0 mg/kg/injection, schedule: Q01DX005 (ip), vehicle: distilled water + Tween-80) 107 % of control.
